Data as given in PMC11007962, “First-in-human study of GFH018, a small molecule inhibitor of transforming growth factor-β receptor I inhibitor, in patients with advanced solid tumors” (BMC Cancer, 2024).
Marks after values point to notes of the source that are not given here.

How the values were obtained:
[1] = test system: recurrent/metastatic nasopharyngeal carcinoma (R/M NPC); set-up: method as in doi:10.1200/JCO.2023.41.16_suppl.6026; settings: ongoing phase Ib/II study; cited from earlier work
pSMAD3 = test system: pSMAD3; set-up: method as in preclinical studies (reference not given); settings: mouse H22 models, ref preclinical studies (reference not given), cited from earlier work
[2] = set-up: method as in doi:10.1158/1538-7445.AM2019-3072; settings: preclinical; cited from earlier work
advanced solid tumors = test: Clinical efficacy: tumor response per RECIST 1.1; type: in vivo, human
Experimental: The endpoints for efficacy, including the objective response rate (ORR), disease control rate (DCR), progression-free survival (PFS), and time to progression (TTP), were assessed per RECIST 1.1. Tumor response was evaluated every two treatment cycles until disease progression, start of a new antitumor treatment, consent withdrawal, loss to follow-up, or study termination for other reasons.

[3] = 5 mg BID 14d-on/14d-off (N = 4)
[4] = 10 mg BID 14d-on/14d-off (N = 3)
[5] = 20 mg BID 14d-on/14d-off (N = 4)
[6] = 30 mg BID 14d-on/14d-off (N = 7)
[7] = 40 mg BID 14d-on/14d-off (N = 4)
[8] = 50 mg BID 14d-on/14d-off (N = 4)
[9] = 65 mg BID 14d-on/14d-off (N = 6)
[10] = 85 mg BID 14d-on/14d-off (N = 12)

Cc1cccc(-c2nn3c(c2-c2ccc4ncnn4c2/C=C/C(N)=O)CCC3)n1 [GFH018]
efficacy in combination with toripalimab [1]: promising efficacy was shown
effective concentration (efficacy with approximately 50% inhibition of pSMAD3) (pSMAD3; after the 1-h dose): 125 ng/ml
inhibition of pSMAD3 at which efficacy was observed (pSMAD3; at 125 ng/ml after the 1-h dose): approximately 50%
effect in combination with anti-PD-1/L1 antibodies [2]: Synergistic effects were observed
BOR: CR (advanced solid tumors; [3]): 0 n (%)
BOR: NA (no postbaseline assessments after the start date) (advanced solid tumors; [3]): 2 (50.0%) n (%)
BOR: NE (not estimable) (advanced solid tumors; [3]): 0 n (%)
BOR: Non-CR/Non-PD (advanced solid tumors; [3]): 0 n (%)
BOR: PD (advanced solid tumors; [3]): 2 (50.0%) n (%)
BOR: PR (advanced solid tumors; [3]): 0 n (%)
BOR: SD (advanced solid tumors; [3]): 0 n (%)
DCR (90%CI) (advanced solid tumors; [3]): 0 n (%)
ORR (90%CI) (advanced solid tumors; [3]): 0 n (%)
BOR: CR (advanced solid tumors; [4]): 0 n (%)
BOR: NA (no postbaseline assessments after the start date) (advanced solid tumors; [4]): 0 n (%)
BOR: NE (not estimable) (advanced solid tumors; [4]): 0 n (%)
BOR: Non-CR/Non-PD (advanced solid tumors; [4]): 0 n (%)
BOR: PD (advanced solid tumors; [4]): 2 (66.7%) n (%)
BOR: PR (advanced solid tumors; [4]): 0 n (%)
BOR: SD (advanced solid tumors; [4]): 1 (33.3%) n (%)
DCR (90%CI) (advanced solid tumors; [4]): 1 (33.3%) (0.84%, 90.57%) n (%)
ORR (90%CI) (advanced solid tumors; [4]): 0 n (%)
BOR: CR (advanced solid tumors; [5]): 0 n (%)
BOR: NA (no postbaseline assessments after the start date) (advanced solid tumors; [5]): 1 (25.0%) n (%)
BOR: Non-CR/Non-PD (advanced solid tumors; [5]): 0 n (%)
BOR: PD (advanced solid tumors; [5]): 1 (25.0%) n (%)
BOR: PR (advanced solid tumors; [5]): 0 n (%)
BOR: SD (advanced solid tumors; [5]): 1 (25.0%) n (%)
DCR (90%CI) (advanced solid tumors; [5]): 1 (25.0%) (0.63%, 80.59%) n (%)
ORR (90%CI) (advanced solid tumors; [5]): 0 n (%)
BOR: NE (not estimable) (advanced solid tumors; 20 mg BID 14d-on/14d-off (N = 4), SD of insufficient duration): 1 (25.0%)^e n (%)
BOR: CR (advanced solid tumors; [6]): 0 n (%)
BOR: NA (no postbaseline assessments after the start date) (advanced solid tumors; [6]): 3 (42.9%) n (%)
BOR: NE (not estimable) (advanced solid tumors; [6]): 0 n (%)
BOR: Non-CR/Non-PD (advanced solid tumors; [6]): 0 n (%)
BOR: PD (advanced solid tumors; [6]): 3 (42.9%) n (%)
BOR: PR (advanced solid tumors; [6]): 0 n (%)
BOR: SD (advanced solid tumors; [6]): 1 (14.3%) n (%)
DCR (90%CI) (advanced solid tumors; [6]): 1 (14.3%) (0.36%, 57.87%) n (%)
ORR (90%CI) (advanced solid tumors; [6]): 0 n (%)
BOR: CR (advanced solid tumors; [7]): 0 n (%)
BOR: NA (no postbaseline assessments after the start date) (advanced solid tumors; [7]): 1 (25.0%) n (%)
BOR: NE (not estimable) (advanced solid tumors; [7]): 0 n (%)
BOR: Non-CR/Non-PD (advanced solid tumors; [7]): 0 n (%)
BOR: PD (advanced solid tumors; [7]): 3 (75.0%) n (%)
BOR: PR (advanced solid tumors; [7]): 0 n (%)
BOR: SD (advanced solid tumors; [7]): 0 n (%)
DCR (90%CI) (advanced solid tumors; [7]): 0 n (%)
ORR (90%CI) (advanced solid tumors; [7]): 0 n (%)
BOR: CR (advanced solid tumors; [8]): 0 n (%)
BOR: NA (no postbaseline assessments after the start date) (advanced solid tumors; [8]): 2 (50.0%) n (%)
BOR: NE (not estimable) (advanced solid tumors; [8]): 0 n (%)
BOR: Non-CR/Non-PD (advanced solid tumors; [8]): 0 n (%)
BOR: PD (advanced solid tumors; [8]): 1 (25.0%) n (%)
BOR: PR (advanced solid tumors; [8]): 0 n (%)
BOR: SD (advanced solid tumors; [8]): 1 (25.0%) n (%)
DCR (90%CI) (advanced solid tumors; [8]): 1 (25.0%) (0.63%, 80.59%) n (%)
ORR (90%CI) (advanced solid tumors; [8]): 0 n (%)
BOR: CR (advanced solid tumors; [9]): 0 n (%)
BOR: NA (no postbaseline assessments after the start date) (advanced solid tumors; [9]): 0 n (%)
BOR: NE (not estimable) (advanced solid tumors; [9]): 0 n (%)
BOR: Non-CR/Non-PD (advanced solid tumors; [9]): 0 n (%)
BOR: PD (advanced solid tumors; [9]): 5 (83.3%) n (%)
BOR: PR (advanced solid tumors; [9]): 0 n (%)
BOR: SD (advanced solid tumors; [9]): 1 (16.7%) n (%)
DCR (90%CI) (advanced solid tumors; [9]): 1 (16.7%) (0.42%, 64.12%) n (%)
ORR (90%CI) (advanced solid tumors; [9]): 0 n (%)
BOR: CR (advanced solid tumors; 85 mg BID 7d-on/7d-off (N = 6)): 0 n (%)
BOR: NA (no postbaseline assessments after the start date) (advanced solid tumors; 85 mg BID 7d-on/7d-off (N = 6)): 3 (50.0%) n (%)
BOR: NE (not estimable) (advanced solid tumors; 85 mg BID 7d-on/7d-off (N = 6)): 0 n (%)
BOR: Non-CR/Non-PD (advanced solid tumors; 85 mg BID 7d-on/7d-off (N = 6)): 0 n (%)
BOR: PD (advanced solid tumors; 85 mg BID 7d-on/7d-off (N = 6)): 2 (33.3%) n (%)
BOR: PR (advanced solid tumors; 85 mg BID 7d-on/7d-off (N = 6)): 0 n (%)
BOR: SD (advanced solid tumors; 85 mg BID 7d-on/7d-off (N = 6)): 1 (16.7%) n (%)
DCR (90%CI) (advanced solid tumors; 85 mg BID 7d-on/7d-off (N = 6)): 1 (16.7%) (0.42%, 64.12%) n (%)
ORR (90%CI) (advanced solid tumors; 85 mg BID 7d-on/7d-off (N = 6)): 0 n (%)
BOR: CR (advanced solid tumors; [10]): 0 n (%)
BOR: NA (no postbaseline assessments after the start date) (advanced solid tumors; [10]): 5 (41.7%) n (%)
BOR: NE (not estimable) (advanced solid tumors; [10]): 0 n (%)
BOR: Non-CR/Non-PD (advanced solid tumors; [10]): 0 n (%)
BOR: PD (advanced solid tumors; [10]): 4 (33.3%) n (%)
BOR: PR (advanced solid tumors; [10]): 0 n (%)
BOR: SD (advanced solid tumors; [10]): 3 (25.0%) n (%)
DCR (90%CI) (advanced solid tumors; [10]): 3 (25.0%) (5.49%, 57.19%) n (%)
ORR (90%CI) (advanced solid tumors; [10]): 0 n (%)
DCR (advanced solid tumors; 85 mg BID, 14 d-on/14 d-off, twelve patients): 25.0%
median PFS (advanced solid tumors; 85 mg BID, 14 d-on/14 d-off, twelve patients, 90% CI, 0.82–3.75): 1.8 months
complete response (CR) or partial response (PR) (advanced solid tumors; 50 enrolled patients, 33 with at least one tumor assessment): No complete response (CR) or partial response (PR) was observed
BOR: CR (advanced solid tumors; Total (N = 50)): 0 n (%)
BOR: NA (no postbaseline assessments after the start date) (advanced solid tumors; Total (N = 50)): 17 (34.0%) n (%)
BOR: Non-CR/Non-PD (advanced solid tumors; Total (N = 50)): 0 n (%)
BOR: PD (advanced solid tumors; Total (N = 50)): 23 (46.0%) n (%)
BOR: PR (advanced solid tumors; Total (N = 50)): 0 n (%)
BOR: SD (advanced solid tumors; Total (N = 50)): 9 (18.0%) n (%)
DCR (90%CI) (advanced solid tumors; Total (N = 50)): 9 (18.0%) (8.58%, 31.44%) n (%)
ORR (90%CI) (advanced solid tumors; Total (N = 50)): 0 n (%)
BOR: NE (not estimable) (advanced solid tumors; Total (N = 50), SD of insufficient duration): 1 (2.0%)^e n (%)
maximum target lesion decrease (advanced solid tumors; one patient with thymic carcinoma, 65 mg BID): 18.4%
